{
  "source": "patent US20090111893A1",
  "about": "“METHOD OF LOWERING BLOOD GLUCOSE AND METHOD OF PREVENTING OR TREATING BLOOD GLUCOSE AND METHOD OF PREVENTING OR TREATING DIABETES AND OBESITY” (National University Corporation Gunma University, priority 2007, published 2009)",
  "key": {"Mouse 3T3-L1 fibroblasts": {"tested_on": "Mouse 3T3-L1 fibroblasts", "assay": "Glucose uptake of confluent 3T3-L1 fibroblasts (glucose concentration in medium)", "type": "cell-based", "conditions": "for glucose uptake-promoting activity: 3T3-L1 cells, same condition as Example 1, FIG. 3, n=3", "experimental": "(1) Mouse 3T3-L1 fibroblasts were cultured in 1 ml of a suitable medium (contained in a 12-well plastic dish) for several days until the cells reached confluence. Then, the cells were cultured for 10-12 hours in the nutrition medium (None), the nutrition medium to which only 0.2% ethanol, a solvent of DIF-1, was added (EtOH), and the nutrition medium to which 10 or 20 µM DIF-1 dissolved in ethanol was added, respectively, and then, glucose concentration in each of the media was determined, based on which glucose uptake rate of the cells was calculated and the ratio with respect to the control was plotted (FIG. 1). […] The data of FIG. 1 are shown by mean value and standard deviation (Bars) of four independent experiments (n=4). (2) Then, mouse 3T3L1 fibroblasts were cultured in 1 ml of a suitable medium (contained in a 12-well plastic dish) until the cells reached confluence. After changing the medium to a new medium (this time point corresponds to 0 hour in the graph), DIF-1 was added, and glucose concentration in the medium was measured at the time point of 20 hours (FIG. 2A), based on which glucose consumption rate was calculated (FIG. 2B). Then, the media were changed to new media containing no DIF-1 for all the samples, and after culture was continued for another 20 hours, glucose concentration was measured (FIG. 2A). The number of cells at this time point was also determined (FIG. 2C). The data of the graph are mean values and standard deviations (Bars) (n=3) of the results of triplicate samples evaluated under the same conditions.\nGlucose uptake-promoting activity of DIF-1 and its artificial derivatives (2-MIDIF1, DMPH, THPH) were compared in the same condition as Example 1 (FIG. 3). The data of the graph are mean values and standard deviations (Bars) (n=3) of three independent experiments.\nGlucose uptake-promoting activity of DIF-1 derivative compounds in 3T3-L1 cells was evaluated in the same manner as described above. The data of the graph are mean values and standard deviations (Bars) (n=3) of triplicate samples measured under the same conditions."}, "KKAy diabetic model mice": {"tested_on": "KKAy diabetic model mice", "type": "in vivo", "conditions": "for blood glucose level as compared with the control group: KKAy mice, intraperitoneal 25, 50 and 100 mg/kg, 4 and 8 hours after administration, n=2, FIG. 6; for death of mice: mouse, in vivo", "experimental": "The in vivo effects of DIF-1 and DIF-1 (3M) were also evaluated with the KKAy diabetic model mice. The drugs were administered intraperitoneally to KKAy mice (male, 13 weeks: Clea Japan) at the concentrations of 25, 50, and 100 mg/kg, respectively, and after free feeding (Time 0), blood glucose level was monitored at the indicated time points (FIG. 6). Each of the experiments used two mice, and the mean values of the relative blood glucose concentrations and ½ variance (Bars)(n=2) were plotted."}, "3T3-L1 adipocytes": {"tested_on": "3T3-L1 adipocytes", "assay": "2-deoxy glucose uptake in 3T3-L1 adipocytes, with or without insulin", "type": "cell-based, mouse", "experimental": "Confluent 3T3-L1 fibroblasts (cultured in a 12-well plate) were treated with IBMX (3-isobutyl-1-methylxanhine), dexamethasone, and insulin to induce differentiation into 3T3-L1 adipocytes (Student A K, Hsu R Y & Lane M D (1980) J. Biol. Chem. 255, 4745-4750.). The 3T3-L1 adipocytes were cultured in the presence of DIF-1 whose concentration is shown in FIG. 5 for four hours, and 2-deoxy glucose uptake was measured. At the same time, some of the adipocytes were stimulated with 100 nM insulin during cultivation (after 3.5 hours) in the presence of DIF-1, and cultured for another 30 minutes, and glucose uptake of the cells was measured. Each experiment was performed in triplicates, and the mean values thereof were calculated in each experiment. Such experiments were performed twice and the mean values and ½ variance (Bars) of the two experiments (n=2) were plotted in FIG. 5."}, "[1]": {"tested_on": "RGM-1 cells (isolated from rat gastric mucosa)", "assay": "Glucose uptake of RGM-1 cells (glucose concentration in medium)", "type": "cell-based", "experimental": "Similar experiments were performed with RGM-1 cells (isolated from rat gastric mucosa) to evaluate the change in glucose concentration in the medium containing DIF-1 or other compounds (FIG. 4). The data of the graph are mean values and standard deviations (Bars) (n=3) of triplicate samples measured under the same conditions."}, "ICR mice": {"tested_on": "ICR mice", "assay": "Blood glucose level in ICR mice after intraperitoneal glucose", "type": "in vivo, mouse", "conditions": "glucose 0.3 g/kg i.p. together with DIF-1, 50 mg/kg group and 100 mg/kg group, FIG. 7", "experimental": "Glucose (0.3 g/kg) was administered intraperitoneally to ICR mice (male, 6-7 weeks) together with DIF-1 (solvent: 5% DMSO, 5% CREMOPHOR, and 90% distilled water), and blood glucose level was determined from just after the administration. Mice to which only glucose was administered was used as a control group, and mice to which neither glucose nor DIF-1 was administered was used as a normal group."}},
  "data": [
    {"smiles": "C/C=C(/C)C(=O)O[C@H]1C(C)=C2[C@H]([C@@H]1OC(=O)CCCCCCC)[C@@](C)(OC(C)=O)C[C@H](OC(=O)CCC)[C@@]1(O)[C@H]2OC(=O)[C@@]1(C)O", "note": "[Tg, Thapsigargin, reference compound]", "values": [
      {"measurement": "glucose uptake-promoting activity", "setting": "Mouse 3T3-L1 fibroblasts", "result": "did not promote glucose uptake"}
    ]},
    {"smiles": "COc1c(Cl)c(O)c(C(=O)CC(C)(C)C)c(O)c1Cl", "note": "[DIF-1 (3M)]", "values": [
      {"measurement": "blood glucose level as compared with the control group", "setting": "KKAy diabetic model mice", "result": "low blood glucose level"},
      {"measurement": "death of mice", "setting": "KKAy diabetic model mice", "result": "No mice died"}
    ]},
    {"smiles": "CCCCCC(=O)c1c(O)c(Cl)c(OC)c(Cl)c1O", "note": "[DIF-1]", "values": [
      {"measurement": "blood glucose level as compared with the control group", "setting": "KKAy diabetic model mice", "result": "low blood glucose level"},
      {"measurement": "death of mice", "setting": "KKAy diabetic model mice", "result": "No mice died"},
      {"measurement": "cell morphology and cell damage by microscopic observation", "setting": "Mouse 3T3-L1 fibroblasts; 3T3-L1 fibroblasts in the presence of DIF-1", "result": "cell damage was not observed"},
      {"measurement": "glucose uptake ratio of the cell (ratio with respect to the control)", "setting": "Mouse 3T3-L1 fibroblasts; 3T3-L1 fibroblasts, 10-12 hours culture, 10 or 20 µM DIF-1, FIG. 1, n=4", "result": "increased dependently on DIF-1 concentration"},
      {"measurement": "glucose uptake of cells (glucose consumption rate)", "setting": "Mouse 3T3-L1 fibroblasts; 3T3-L1 fibroblasts, 20-hour culture with DIF-1, FIG. 2A/2B, n=3", "result": "promotes glucose uptake of cells in a concentration-dependent manner"},
      {"measurement": "number of cells", "setting": "Mouse 3T3-L1 fibroblasts; 3T3-L1 fibroblasts, after 40-hour culture, FIG. 2C", "result": "without influencing the number of cells"},
      {"measurement": "reversibility of the action on glucose uptake", "setting": "Mouse 3T3-L1 fibroblasts; 3T3-L1 fibroblasts, medium changed to DIF-1-free medium, another 20 hours, FIG. 2A", "result": "reversible"},
      {"measurement": "2-deoxy glucose uptake", "setting": "3T3-L1 adipocytes; DIF-1 singly, four hours, FIG. 5, n=2", "result": "promoted glucose uptake in a concentration-dependent manner"},
      {"measurement": "2-deoxy glucose uptake with insulin", "setting": "3T3-L1 adipocytes; relatively low concentration of DIF-1 plus 100 nM insulin for the last 30 minutes, FIG. 5", "result": "additive effect with insulin"},
      {"measurement": "glucose uptake", "setting": "[1]; 6- and 12-hour culture, FIG. 4", "result": "promotes glucose uptake in a concentration-dependent manner"},
      {"measurement": "cell number", "setting": "[1]; after 12-hour culture, FIG. 4C", "result": "without influencing cell number"},
      {"measurement": "blood glucose level as compared with the control group", "setting": "ICR mice", "result": "significantly lowered blood glucose level"}
    ]},
    {"smiles": "CNc1ccc2oc(C[C@H]3O[C@@]4(CC[C@H]3C)O[C@H]([C@H](C)C(=O)c3ccc[nH]3)[C@H](C)C[C@H]4C)nc2c1C(=O)O", "note": "[A23187, reference compound]", "values": [
      {"measurement": "glucose uptake-promoting activity", "setting": "Mouse 3T3-L1 fibroblasts", "result": "did not promote glucose uptake"}
    ]},
    {"smiles": "COCc1nc2c([nH]1)c(=O)n(C)c(=O)n2CC(C)C", "note": "[8-MIBMX, reference compound]", "values": [
      {"measurement": "glucose uptake-promoting activity", "setting": "Mouse 3T3-L1 fibroblasts", "result": "did not promote glucose uptake"}
    ]}
  ]
}
